# Publication PMC7889231 (Journal of Enzyme Inhibition and Medicinal Chemistry, 2021)
# Read-outs that look alike come from different tables or passages of the source.
# How the values were obtained:
# HepG-2 = test: MTT anti-proliferative assay, HepG-2; type: cell-based, human; conditions: for IC50: Homo sapiens
# HCT-116 = test: MTT anti-proliferative assay, HCT-116; type: cell-based, human; conditions: for IC50: Homo sapiens
# MCF-7 = test: MTT anti-proliferative assay, MCF-7; type: cell-based, human; conditions: Homo sapiens
# tubulin = test: In vitro tubulin polymerisation inhibition (turbidimetric, fluorescent plate reader); type: biochemical; conditions: mean of three experiments
# Protocol: The inhibition assay on microtubule polymerisation was evaluated turbidimetrically using a fluorescent plate reader.
# The effect of the synthesised compounds on tubulin polymerisation was assessed turbidimetrically using a fluorescent plate reader method. The complete procedure was depected in Supplementary data.
# [1] = test system: HepG-2, HCT-116, and MCF-7; test: MTT anti-proliferative assay, ranges stated over several cell lines; type: cell-based; conditions: Homo sapiens
# [2] = HepG2, MTT, mean ± SD of three experiments, read-out: IC50 HepG-2
# [3] = HCT-116, MTT, mean ± SD of three experiments, read-out: IC50 HCT-116
# [4] = MCF7, MTT, mean ± SD of three experiments, read-out: IC50 MCF-7
# [5] = range over HCT-116 and MCF-7 and over the listed compounds, read-out: IC50 values ranging (HCT-116 and MCF-7)
# [6] = range over HepG-2, HCT-116 and MCF-7 and over the listed compounds, read-out: IC50 values ranging (all tested cell lines)
# [7] = HCT-116, read-out: IC50 HCT-116
# [8] = read-out: IC50 values ranging (all tested cell lines)
Structure (SMILES),IC50 (HepG-2; [2]),IC50 (HCT-116; [3]),IC50 (MCF-7; [4]),IC50 (tubulin),"IC50 [1, 5]",melting point,"IC50 [1, 6]","times of colchicine cytotoxic activity, HepG-2 (HepG-2; ratio of IC50 to colchicine)","times of colchicine cytotoxic activity, HCT-116 (HCT-116; ratio of IC50 to colchicine)","IC50 (HepG-2; HepG2, read-out: IC50 HepG-2)",IC50 (HCT-116; [7]),"IC50 (MCF-7; MCF7, read-out: IC50 MCF-7)","IC50 [1, 8]"
"COc1ccc2nc(Cl)c(-c3cc(-c4ccc(N)cc4)nc(=O)[nH]3)cc2c1 [Compound 33, 4–(4-Aminophenyl)-6–(2-chloro-6-methoxyquinolin-3-yl)pyrimidin-2(1H)-one]",9.37 ± 0.4 µM,8.5 ± 0.2 µM,10.3 ± 0.5 µM,0.0472 µM,6.48 to 10.3 µM,171 to 172 °C,,,,,,,
"COc1ccc2nc(Cl)c(C3CC(c4ccc(Cl)cc4)=NN3)cc2c1 (stereo not drawn) [Compound 8, 2-Chloro-3-[3–(4-chlorophenyl)-4,5-dihydro-1H-pyrazol-5-yl]-6-methoxyquinoline]",30.9 ± 1.2 µM,22.4 ± 1.1 µM,33.5 ± 2.4 µM,,,118 to 119 °C,22.4 to 45.5 µM,,,,,,
"COc1ccc2nc(Cl)c(-c3cc(-c4cc(OC)c(OC)c(OC)c4)nc(=O)[nH]3)cc2c1 [Compound 34, 6–(2-Chloro-6-methoxyquinolin-3-yl)-4–(3,4,5-trimethoxyphenyl)pyrimidin-2(1H)-one]",15.3 ± 0.4 µM,11.9 ± 0.4 µM,15.4 ± 0.8 µM,,,176 to 177 °C,10.2 to 17.6 µM,,,,,,
"COc1ccc2nc(Cl)c(-c3cc(-c4ccc(Cl)cc4)nc(=S)[nH]3)cc2c1 [Compound 26, 6–(2-Chloro-6-methoxyquinolin-3-yl)-4–(4-chlorophenyl)pyrimidine-2(1H)-thione]",3.62 ± 0.1 µM,2.24 ± 0.2 µM,5.55 ± 0.2 µM,0.0345 µM,,155 to 156 °C,1.78 to 9.19 µM,,,,,,
"COc1ccc2nc(Cl)c(C3CC(c4ccc(N)cc4)=NN3C(N)=S)cc2c1 (stereo not drawn) [Compound 15, 3–(4-Aminophenyl)-5–(2-chloro-6-methoxyquinolin-3-yl)-4,5-dihydro-1H-pyrazole-1-carbothioamide]",10.2 ± 0.4 µM,11.6 ± 0.9 µM,13.6 ± 0.7 µM,,,123 to 124 °C,10.2 to 17.6 µM,,,,,,
"COc1ccc2nc(Cl)c(/C=C/C(=O)c3ccc(Cl)cc3)cc2c1 [Compound 5, (E)-3–(2-Chloro-6-methoxyquinolin-3-yl)-1–(4-chlorophenyl)prop-2-en-1-one]",29.2 ± 1.9 µM,28.9 ± 1.7 µM,32.2 ± 2 µM,,,135 to 136 °C,22.4 to 45.5 µM,,,,,,
"COc1ccc2nc(Cl)c(C3CC(c4ccc(Cl)cc4)=NN3c3ccccc3)cc2c1 (stereo not drawn) [Compound 20, 2-Chloro-3-[3–(4-chlorophenyl)-1-phenyl-4,5-dihydro-1H-pyrazol-5-yl]-6-methoxyquinoline]",2.6 ± 0.1 µM,1.81 ± 0.1 µM,4.51 ± 0.2 µM,0.0368 µM,,145 to 146 °C,1.78 to 9.19 µM,5.15 times,2.84 times,,,,
"COc1ccc2nc(Cl)c(C3CC(c4ccc(Cl)cc4)=NN3c3ccc([N+](=O)[O-])cc3[N+](=O)[O-])cc2c1 (stereo not drawn) [Compound 23, 2-Chloro-3-[3–(4-chlorophenyl)-1–(2,4-dinitrophenyl)-4,5-dihydro-1H-pyrazol-5-yl]-6-methoxyquinoline]",,,,,,143 to 144 °C,,,,2.64 ± 0.1 µM,1.78 ± 0.1 µM,4.48 ± 0.1 µM,1.78 to 9.19 µM
"COc1ccc2nc(Cl)c(C3CC(c4cc(OC)c(OC)c(OC)c4)=NN3c3ccccc3)cc2c1 (stereo not drawn) [Compound 22, 2-Chloro-6-methoxy-3-[1-phenyl-3–(3,4,5-trimethoxyphenyl)-4,5-dihydro-1H-pyrazol-5-yl]quinoline]",4.76 ± 0.2 µM,3.04 ± 0.3 µM,6.45 ± 0.2 µM,0.0191 µM,,136 to 137 °C,1.78 to 9.19 µM,,,,,,
"COc1ccc2nc(Cl)c(-c3cc(-c4ccc(Cl)cc4)nc(N)n3)cc2c1 [Compound 29, 4–(2-Chloro-6-methoxyquinolin-3-yl)-6–(4-chlorophenyl)pyrimidin-2-amine]",16.5 ± 0.8 µM,13 ± 0.6 µM,17.6 ± 0.8 µM,,,195 to 196 °C,10.2 to 17.6 µM,,,,,,
"COc1ccc2nc(Cl)c(-c3cc(-c4cc(OC)c(OC)c(OC)c4)nc(=S)[nH]3)cc2c1 [Compound 28, 6–(2-Chloro-6-methoxyquinolin-3-yl)-4–(3,4,5-trimethoxyphenyl)pyrimidine-2(1H)-thione]",5.47 ± 0.2 µM,5.85 ± 0.3 µM,7.34 ± 0.2 µM,0.0374 µM,,141 to 142 °C,1.78 to 9.19 µM,,,,,,
"COc1ccc2nc(Cl)c(C3CC(c4cc(OC)c(OC)c(OC)c4)=NN3C(N)=O)cc2c1 (stereo not drawn) [Compound 19, 5–(2-Chloro-6-methoxyquinolin-3-yl)-3–(3,4,5-trimethoxyphenyl)-4,5-dihydro-1H-pyrazole-1-carboxamide]",10.9 ± 0.5 µM,7.38 ± 0.4 µM,9.04 ± 0.5 µM,,6.48 to 10.3 µM,117 to 118 °C,,,,,,,
"COc1ccc2nc(Cl)c(C3CC(c4ccc(N)cc4)=NN3C(N)=O)cc2c1 (stereo not drawn) [Compound 18, 3–(4-Aminophenyl)-5–(2-chloro-6-methoxyquinolin-3-yl)-4,5-dihydro-1H-pyrazole-1-carboxamide]",10.2 ± 0.4 µM,10.4 ± 0.3 µM,13.7 ± 0.8 µM,,,130 to 131 °C,10.2 to 17.6 µM,,,,,,
"COc1ccc2nc(Cl)c(-c3cc(-c4ccc(N)cc4)nc(N)n3)cc2c1 [Compound 30, 4–(4-Aminophenyl)-6–(2-chloro-6-methoxyquinolin-3-yl)pyrimidin-2-amine]",28.5 ± 1.3 µM,32.7 ± 0.9 µM,33.8 ± 1.5 µM,,,175 to 176 °C,22.4 to 45.5 µM,,,,,,
"COc1ccc2nc(Cl)c(C3CC(c4ccc(N)cc4)=NN3c3ccc([N+](=O)[O-])cc3[N+](=O)[O-])cc2c1 (stereo not drawn) [Compound 24, 4-[5–(2-Chloro-6-methoxyquinolin-3-yl)-1–(2,4-dinitrophenyl)-4,5-dihydro-1H-pyrazol-3-yl]aniline]",,,,0.146 µM,,139 to 140 °C,,,,3.14 ± 0.1 µM,4.18 ± 0.2 µM,4.97 ± 0.1 µM,1.78 to 9.19 µM
"COc1ccc2nc(Cl)c(C3CC(c4ccc(N)cc4)=NN3c3ccccc3)cc2c1 (stereo not drawn) [Compound 21, 4-[5–(2-Chloro-6-methoxyquinolin-3-yl)-1-phenyl-4,5-dihydro-1H-pyrazol-3-yl]aniline]",7.32 ± 0.2 µM,8.91 ± 0.3 µM,9.19 ± 0.3 µM,0.00911 µM,,136 to 137 °C,1.78 to 9.19 µM,,,,,,
"COc1ccc2nc(Cl)c(-c3cc(-c4ccc(Cl)cc4)nc(=O)[nH]3)cc2c1 [Compound 32, 6–(2-Chloro-6-methoxyquinolin-3-yl)-4–(4-chlorophenyl)pyrimidin-2(1H)-one]",8.16 ± 0.2 µM,6.48 ± 0.2 µM,9.89 ± 0.4 µM,0.0105 µM,6.48 to 10.3 µM,180 to 181 °C,,,,,,,
"COc1ccc2nc(Cl)c(C3CC(c4ccc(Cl)cc4)=NN3C(N)=S)cc2c1 (stereo not drawn) [Compound 14, 5–(2-Chloro-6-methoxyquinolin-3-yl)-3–(4-chlorophenyl)-4,5-dihydro-1H-pyrazole-1-carbothioamide]",8.92 ± 0.4 µM,7.62 ± 0.4 µM,10 ± 0.4 µM,0.0501 µM,6.48 to 10.3 µM,136 to 137 °C,,,,,,,
